Data on one compound can be found in ChEMBL document CHEMBL3046332, “Ultrastructural effects of pyridalyl, an insecticidal agent, on epidermal cells of Spodoptera litura larvae and cultured insect cells Sf9” (J Pestic Sci, 2006).

Active and inactive are the calls of the source. No cut-off for these calls is given here.

Assay [1] has as its system Spodoptera litura. The experiment in a line: Insecticidal activity against Spodoptera litura larvae assessed as epidermal cell nuclear change at 100 ng measured after 2 hr by ultrastructural analysis/electron microscopy. Format: functional, organism-based.
Assay [2] concerns Spodoptera litura. The experiment in a line: Insecticidal activity against Spodoptera litura larvae assessed as symptoms at 100 ng measured after 2 hr. The assay is classed as functional, organism-based.
Assay [3] concerns Sf9. The experiment in a line: Ultrastructural effect on Spodoptera frugiperda (fall armyworm) sf9 cells assessed as dissociation of polysomes and nuclear swelling at 1 uM measured 4 to 6 hr by electron microscopy. Format: functional, cell-based.
For assay [4], the system named is Sf9. Kind of assay: Ultrastructural effect on Spodoptera frugiperda (fall armyworm) sf9 cells assessed as mitochondria with disarranged cristae at 1 uM measured 8 hr by electron microscopy. The assay is classed as functional, cell-based.
The subject of assay [5] is Sf9. Kind of assay: Ultrastructural effect on Spodoptera frugiperda (fall armyworm) sf9 cells assessed as swollen mitochondria at 1 uM measured for 8 hr by electron microscopy. Format: functional, cell-based.
The subject of assay [6] is Sf9. Kind of assay: Ultrastructural effect on Spodoptera frugiperda (fall armyworm) sf9 cells assessed as low density matrix mitochondria at 1 uM measured 4 to 6 hr by electron microscopy. Format: functional, cell-based.
The subject of assay [7] is Sf9. Kind of assay: Ultrastructural effect on Spodoptera frugiperda (fall armyworm) sf9 cells assessed as decrease in mitochondrial number at 1 uM measured 4 to 6 hr by electron microscopy. The assay is classed as functional, cell-based.
The subject of assay [8] is Sf9. Kind of assay: Ultrastructural effect on Spodoptera frugiperda (fall armyworm) sf9 cells assessed as enlarged mitochondria at 1 uM measured 4 to 6 hr by electron microscopy. Format: functional, cell-based.
Assay [9] deals with Spodoptera litura. The experiment in a line: Insecticidal activity against Spodoptera litura larvae assessed as midgut and ganglia at 100 ng measured after 6 hr by ultrastructural analysis/electron microscopy. Format: functional, organism-based.
In assay [10] the test system is Spodoptera litura. The experiment in a line: Insecticidal activity against Spodoptera litura larvae assessed as muscular and fat tissues underlying the epidermis at 100 ng measured after 6 hr by ultrastructural analysis/electron microscopy. Format: functional, organism-based. Conditions: Adipose tissue.
The subject of assay [11] is Spodoptera litura. The experiment in a line: Insecticidal activity against Spodoptera litura larvae assessed as dorsal aorta at 100 ng measured after 6 hr by ultrastructural analysis/electron microscopy. Format: functional, organism-based.
Assay [12] relates to Spodoptera litura. The experiment in a line: Insecticidal activity against Spodoptera litura larvae assessed as shorten microvillous projections epidermal cell at 100 ng measured after 6 hr by ultrastructural analysis/electron. Format: functional, organism-based.
In assay [13] the test system is Spodoptera litura. The experiment in a line: Insecticidal activity against Spodoptera litura larvae assessed as condensed and shrunken epidermal cell at 100 ng measured after 6 hr by ultrastructural analysis/electron microscopy. Format: functional, organism-based.
The subject of assay [14] is Spodoptera litura. The experiment in a line: Insecticidal activity against Spodoptera litura larvae assessed as diluted Golgi apparatus in epidermal cell at 100 ng measured after 6 hr by ultrastructural analysis/electron microscopy. The assay is classed as functional, organism-based.
For assay [15], the system named is Spodoptera litura. Kind of assay: Insecticidal activity against Spodoptera litura larvae assessed as diluted rough endoplasmic reticula in epidermal cell at 100 ng measured after 6 hr by ultrastructural analysis/electron microscopy. The assay is classed as functional, organism-based.
The test system of assay [16] is Spodoptera litura. Kind of assay: Insecticidal activity against Spodoptera litura larvae assessed as swollen mitochondria in epidermal cell at 100 ng measured after 6 hr by ultrastructural analysis/electron microscopy. The assay is classed as functional, organism-based.
The test system of assay [17] is Spodoptera litura. Kind of assay: Insecticidal activity against Spodoptera litura larvae assessed as paralysis at 100 ng measured after 6 hr. The assay is classed as functional, organism-based.
Assay [18] relates to Spodoptera litura. The experiment in a line: Insecticidal activity against Spodoptera litura larvae assessed as enlarged mitochondria in epidermal cell at 100 ng measured after 4 hr by ultrastructural analysis/electron microscopy. Format: functional, organism-based.
Assay [19] has as its system Spodoptera litura. Kind of assay: Insecticidal activity against Spodoptera litura larvae assessed as condensed nuclei in epidermal cell at 100 ng measured after 4 hr by ultrastructural analysis/electron microscopy. Format: functional, organism-based.
In assay [20] the test system is Spodoptera litura. Kind of assay: Insecticidal activity against Spodoptera litura larvae assessed as decrease in mobility at 100 ng measured after 4 hr. Format: functional, organism-based.
The test system of assay [21] is Spodoptera litura. Kind of assay: Insecticidal activity against Spodoptera litura larvae assessed intracytoplasmic ultrastructures of the epidermal cell at 100 ng measured after 2 hr by ultrastructural analysis/electron microscopy. The assay is classed as functional, organism-based.

For the compound `FC(F)(F)c1ccc(OCCCOc2c(Cl)cc(OCC=C(Cl)Cl)cc2Cl)nc1`, the result in assay [1], in assay [2], in assay [9], in assay [10], in assay [11] and in assay [21] was inactive. The result in [3], in assay [4], in [5], in assay [6], in assay [7] and in assay [8] was Active. In addition, the result in [12], in [13], in [14], in assay [15], in assay [16] and in assay [17] was Active. Moreover, the outcome in [18], in [19] and in [20] was Active.
